Data from patent US10072005B2, “4-azaindole derivatives” (EISAI R&D MANAGEMENT CO., LTD., priority 2013, dated 2018).

Target: mAChR M1 (Homo sapiens, UniProt P11229)
Experiment: In vitro cellular calcium flux assay, positive allosteric modulation of mAChR M1
Assay type: cell-based
Settings: BHK cells expressing mAChR M1; EC20 carbachol; Examples 76-80 and 82-89 slightly modified procedure
Experimental: Baby hamster kidney cells stably expressing human or rat mAChR M1 to M5 were utilised for primary and selectivity profiling activities. mAChR M2 and M4 cell lines also stably expressed the chimeric Gαqi5 G-protein.
Human mAChR M1, M3, M5 and rat M1 cells were grown in low glucose Dulbecco's Modified Eagle's Medium (DMEM) medium plus heat inactivated 10% fetal bovine serum (HI FBS) and 500 μg/ml hygromycin B^1. Human mAChR M2 and M4 cells were maintained as above with^2 the addition of 500 μg/ml G418 to the media. Cells were maintained in culture at 37° C./5% CO2 and passaged twice weekly by treatment with 0.05% Trypsin/EDTA detachment solution, centrifugation (200 g, 5 min) and re-suspension in fresh media. Following cell expansion, cells were cryopreserved at −80° C. by treatment with 0.05% Trypsin/EDTA detachment solution, centrifugation (200 g, 5 min) and re-suspension of the pellet in freezing media (90% HI FBS/10% DMSO^3) at 15E6 cells/ml^4.
Prior to assaying, cells were prepared by thawing at 37° C. in a water bath, centrifugation (200 g, 5 min) and re-suspension of the pellet in fresh media. 15000 cells per well were seeded in black, clear bottomed 384-well Greiner Bio-One plates in plating medium (DMEM/10% HI FBS) and incubated overnight at 37 C/5% CO2.
On the day of the assay, media was removed from each well and replaced with 50 μl^5 assay buffer (HBSS with 20 mM HEPES and 2.5 mM Probenecid) containing the calcium indicator, Calcium 4 (Molecular Devices). Cells were then incubated at 37° C./5% CO2 for 30 min and at room temperature.
Compound preparation was carried out by generation of 11-point, 1 in 3 serial dilution concentration response curves in 100% DMSO. Compound was then diluted 1 in 65^6 with assay buffer (HBSS with 20 mM HEPES and 2.5 mM Probenecid) prior to the addition of 10 ul^7 to the cells using a Tetra fluorometric imaging plate reader (Molecular Devices)^8. Compound driven increases in intracellular calcium flux was measured as an increase in fluorescence (494Ex, 516Em)^9.
Positive allosteric modulator pEC50 values and antagonist pIC50 values for each compound were then determined. […] The points of modification and the alternate reagents, concentrations or equipment employed in these examples were: ^1200 μg/ml hygromycin B; ^2G418 not added; ^3CELLBANKER 1; ^410E6; ^5 40 μl; ^6 1 in 99; ^7 20 μl; ^8FDSS6000 (Hamamatsu Photonics); ^9(480Ex, 540Em); ^10Spotfire (TIBCO).

Chain of mAChR M1 (P11229 whole entry, looked up): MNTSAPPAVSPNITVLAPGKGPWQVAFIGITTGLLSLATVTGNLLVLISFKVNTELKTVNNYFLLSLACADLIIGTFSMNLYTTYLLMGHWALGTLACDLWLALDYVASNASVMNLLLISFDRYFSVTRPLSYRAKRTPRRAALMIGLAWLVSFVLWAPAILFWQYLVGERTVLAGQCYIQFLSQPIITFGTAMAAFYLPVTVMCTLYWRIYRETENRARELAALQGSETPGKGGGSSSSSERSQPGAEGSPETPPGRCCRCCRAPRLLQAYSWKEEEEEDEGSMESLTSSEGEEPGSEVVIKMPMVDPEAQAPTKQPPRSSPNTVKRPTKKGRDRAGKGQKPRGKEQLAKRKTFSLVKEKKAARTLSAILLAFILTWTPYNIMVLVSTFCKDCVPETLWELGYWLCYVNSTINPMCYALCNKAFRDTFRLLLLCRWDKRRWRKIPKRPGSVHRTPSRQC

SMILES	pEC50 for positive allosteric modulation
Cc1cc(Cn2cc(C(=O)N[C@H]3CCCC[C@@H]3O)c3ncccc32)ccn1 [Example 76, N-((1S,2S)-2-Hydroxycyclohexyl)-1-((2-methylpyridin-4-yl)methyl)-1H-pyrrolo[3,2-b]pyridine-3-carboxamide]	6.4
O=C(N[C@H]1CCCC[C@@H]1O)c1cn(Cc2ccncc2)c2cccnc12 [Example 77, N-((1S,2S)-2-Hydroxycyclohexyl)-1-(pyridin-4-ylmethyl)-1H-pyrrolo[3,2-b]pyridine-3-carboxamide]	6.3
Cc1cc(Cn2cc(C(=O)N[C@H]3CCCC[C@@H]3O)c3nccc(Cl)c32)ccn1 [Example 78, 7-Chloro-N-((1S,2S)-2-hydroxycyclohexyl)-1-((2-methylpyridin-4-yl)methyl)-1H-pyrrolo[3,2-b]pyridine-3-carboxamide]	7.8
O=C(N[C@H]1CCCC[C@@H]1O)c1cn(Cc2ccncc2)c2c(Cl)ccnc12 [Example 79, 7-Chloro-N-((1S,2S)-2-hydroxycyclohexyl)-1-(pyridin-4-ylmethyl)-1H-pyrrolo[3,2-b]pyridine-3-carboxamide]	7.4
Cc1ccnc(Cn2cc(C(=O)N[C@H]3CCCC[C@@H]3O)c3nccc(Cl)c32)c1 [Example 80, 7-Chloro-N-((1S,2S)-2-hydroxycyclohexyl)-1-((4-methylpyridin-2-yl)methyl)-1H-pyrrolo[3,2-b]pyridine-3-carboxamide]	7.1
Cc1ccnc2c(C(=O)N[C@H]3CCCC[C@@H]3O)cn(Cc3ccc(Cl)cn3)c12 [Example 81, 1-((5-Chloropyridin-2-yl)methyl)-N-((1S,2S)-2-hydroxycyclohexyl)-7-methyl-1H-pyrrolo[3,2-b]pyridine-3-carboxamide]	7.2
O=C(N[C@H]1CCOC[C@@H]1O)c1cn(Cc2ccc(F)cc2)c2c(Cl)ccnc12 [Example 88, 7-Chloro-1-(4-fluorobenzyl)-N-((3R,4S)-3-hydroxytetrahydro-2H-pyran-4-yl)-1H-pyrrolo[3,2-b]pyridine-3-carboxamide]	6.4
O=C(N[C@@H]1CCOC[C@H]1O)c1cn(Cc2ccc(F)cc2)c2c(Cl)ccnc12 [Example 89, 7-Chloro-1-(4-fluorobenzyl)-N-((3S,4R)-3-hydroxytetrahydro-2H-pyran-4-yl)-1H-pyrrolo[3,2-b]pyridine-3-carboxamide]	6.6
O=C(N[C@H]1CCCC[C@@H]1O)c1cn(Cc2ccc(C(F)(F)F)cc2)c2cccnc12 [Example 90, N-((1S,2S)-2-hydroxycyclohexyl)-1-(4-(trifluoromethyl)benzyl)-1H-pyrrolo[3,2-b]pyridine-3-carboxamide]	6.6
COc1cc(Cn2cc(C(=O)N[C@H]3CCCC[C@@H]3O)c3ncccc32)ccc1F [Example 91, 1-(4-fluoro-3-methoxybenzyl)-N-((1S,2S)-2-hydroxycyclohexyl)-1H-pyrrolo[3,2-b]pyridine-3-carboxamide]	6.3
COc1ccc(Cn2cc(C(=O)N[C@H]3CCCC[C@@H]3O)c3ncccc32)c(F)c1 [Example 92, 1-(2-fluoro-4-methoxybenzyl)-N-((1S,2S)-2-hydroxycyclohexyl)-1H-pyrrolo[3,2-b]pyridine-3-carboxamide]	6.4
COc1ccc(Cn2cc(C(=O)N[C@H]3CCCC[C@@H]3O)c3ncccc32)cc1 [Example 93, N-((1S,2S)-2-hydroxycyclohexyl)-1-(4-methoxybenzyl)-1H-pyrrolo[3,2-b]pyridine-3-carboxamide]	6.9
O=C(N[C@H]1CCCC[C@@H]1O)c1cn(Cc2cccc(C(F)(F)F)c2)c2cccnc12 [Example 95, N-((1S,2S)-2-hydroxycyclohexyl)-1-(3-(trifluoromethyl)benzyl)-1H-pyrrolo[3,2-b]pyridine-3-carboxamide]	6.1
Cc1cccc(Cn2cc(C(=O)N[C@H]3CCCC[C@@H]3O)c3ncccc32)c1 [Example 96, N-((1S,2S)-2-hydroxycyclohexyl)-1-(3-methylbenzyl)-1H-pyrrolo[3,2-b]pyridine-3-carboxamide]	6.7
Cc1ccc(Cn2cc(C(=O)N[C@H]3CCCC[C@@H]3O)c3ncccc32)c(F)c1 [Example 97, 1-(2-fluoro-4-methylbenzyl)-N-((1S,2S)-2-hydroxycyclohexyl)-1H-pyrrolo[3,2-b]pyridine-3-carboxamide]	6.9
Cc1ccnc2c(C(=O)N[C@H]3CCCC[C@@H]3O)cn(Cc3cc(F)ccc3F)c12 [Example 98, 1-(2,5-difluorobenzyl)-N-((1S,2S)-2-hydroxycyclohexyl)-7-methyl-1H-pyrrolo[3,2-b]pyridine-3-carboxamide]	7.0
O=C(N[C@H]1CCCC[C@@H]1O)c1cn(Cc2ccc(OC(F)(F)F)cc2)c2c(Cl)ccnc12 [Example 99, 7-chloro-N-((1S,2S)-2-hydroxycyclohexyl)-1-(4-(trifluoromethoxy)benzyl)-1H-pyrrolo[3,2-b]pyridine-3-carboxamide]	6.7
Cc1ccnc2c(C(=O)N[C@H]3CCCC[C@@H]3O)cn(Cc3ccc(OC(F)(F)F)cc3)c12 [Example 100, N-((1S,2S)-2-hydroxycyclohexyl)-7-methyl-1-(4-(trifluoromethoxy)benzyl)-1H-pyrrolo[3,2-b]pyridine-3-carboxamide]	6.8
Cc1ccnc2c(C(=O)N[C@H]3CCCC[C@@H]3O)cn(Cc3cc(F)cc(F)c3)c12 [Example 101, 1-(3,5-difluorobenzyl)-N-((1S,2S)-2-hydroxycyclohexyl)-7-methyl-1H-pyrrolo[3,2-b]pyridine-3-carboxamide]	7.0
COc1cccc(Cn2cc(C(=O)N[C@H]3CCCC[C@@H]3O)c3ncccc32)c1F [Example 102, 1-(2-fluoro-3-methoxybenzyl)-N-((1S,2S)-2-hydroxycyclohexyl)-1H-pyrrolo[3,2-b]pyridine-3-carboxamide]	6.4
COc1ccnc2c(C(=O)N[C@H]3CCCC[C@@H]3O)cn(Cc3cccc(F)c3F)c12 [Example 104, 1-(2,3-difluorobenzyl)-N-((1S,2S)-2-hydroxycyclohexyl)-7-methoxy-1H-pyrrolo[3,2-b]pyridine-3-carboxamide]	6.3
COc1ccc(Cn2cc(C(=O)N[C@H]3CCCC[C@@H]3O)c3nccc(OC)c32)cc1 [Example 105, N-((1S,2S)-2-hydroxycyclohexyl)-7-methoxy-1-(4-methoxybenzyl)-1H-pyrrolo[3,2-b]pyridine-3-carboxamide]	6.7
